Experimental data from patent US20090176786A1, “Benzoylurea Compounds and Use Thereof” (priority 2005, published 2009).

How the values were obtained:
Assay type in all cases: in vivo
[1] = system: Plutella xylostella; test: Test Example 1: spray on cabbage, dead pest rate of Plutella xylostella larvae; conditions: 500 ppm spray solution, 20 ml/cup on cabbage, 5 second-instar larvae, after 5 days; for pest or weed control at 500 ppm: Plutella xylostella, 120 h
Experimental: Ten parts of the present compound (1), (2), (5) to (19), (21) to (34), (36) to (61), (63), (64), (68) to (71), (74), (76) to (78), (82) to (83), (89), (93), (94), (97), (99), (102) to (110), (111), (115), (116) (117) to (120) or (123) to (134); 35 parts of white carbon containing 50 parts of polyoxyethylene alkyl ether sulfate ammonium salt; and 55 parts of water were mixed, and finely ground by a wet grinding method to obtain a 10% flowable agent. The obtained flowable agent was diluted with water so that the active ingredient concentration became to 500 ppm to prepare a spray solution for test.
Cabbages were planted in polyethylene cups, and grown until the third true leaf or the fourth true leaf was developed. The spray solution for test prepared above was sprayed at a rate of 20 ml/cup on the cabbages.
After the pesticidal solution sprayed onto the cabbages was dried, 5 second-instar larvae of Plutella xylostella were put on the cabbages. After 5 days, the number of dead Plutella xylostella was examined, and a dead pest rate was calculated by the following equation:
(§1) Dead pest rate(%)=(the number of dead pests/the number of tested pests)×100

[2] = system: Plutella xylostella; test: Test Example 2: cabbage root immersion (systemic), dead pest rate of Plutella xylostella larvae; conditions: Plutella xylostella, 120 h, root immersion 5 days, 10 second-instar larvae, after 5 days at 24° C.; for pest or weed control at 25 ppm: test concentration 25 ppm
Experimental: In 0.25 mL of a mixture solution of Sorgen TW-20 (manufactured by Daiichi Industries Pharmaceuticals, Co., Ltd.) and acetone (mixture volume ratio; Sorgen TW-20:acetone=1:19), 2.5 mg of the present compound (1), (2), (3), (4), (7), (10), (11), (12), (16), (18), (19), (20), (21), (22), (25), (30), (36), (37), (41), (42), (52), (54), (56), (57), (60), (62), (105) or (109) was dissolved. The solution was diluted with ion-exchanged water so that the active ingredient concentration became to a predetermined concentration to prepare a pesticidal solution for test of the test compound. The root part of cabbages in the fourth leaf period were washed with tap water to remove soils, and then immersed in the pesticidal solution for test. After 5 days from immersion of the root part, the root part was removed, and the leaves and stems were put in a cup (volume; 180 mL). In the cup 10 second-instar larvae of Plutella xylostella were released, and the cup was stored at 24° C. After 5 days, the number of dead pests was counted, and the dead pest rate was calculated by the following equation:
as §1
The test concentrations of the other present compounds were 25 ppm.

[3] = system: Frankliniella occidentalis; test: Test Example 4: spray on cucumber, control value against Frankliniella occidentalis larvae; conditions: 168 h, test concentration 50 ppm, spray 20 ml/cup on cucumber, 30 larvae, seven days after spraying
Experimental: The obtained preparation was diluted with water so that the active ingredient concentration became to a predetermined concentration to prepare a spray solution for test. […] were planted in polyethylene cups, and were grown until the first true leaf was developed. The spray solution for test prepared above was sprayed at the rate of 20 ml/cup on the cucumber. After the pesticidal solution sprayed onto the cucumber was dried, the first true leaf was cut off and then placed on a filter paper (diameter: 70 mm) containing water in a polyethylene cup (diameter: 110 mm). On the cucumber leaf, 30 larvae of Frankliniella occidentalis were released, and the polyethylene cup was capped. Seven days after spraying, the number of pests surviving on the cucumber leaf was counted, and a control value was calculated by the following equation: Control value(%)={1−(Cb×Tai)/(Cai×Tb)}×100 wherein, each symbol has following meaning: Cb: the number of pests before treatment in a non-treated area Cai: the number of pests at the time of observation in a non-treated area Tb: the number of pests before treatment in a treated-area Tai: the number of pests at the time of observation in a treated-area. […] The test concentrations of the other present compounds were 50 ppm.

[4] = system: Plutella xylostella; test: Test Example 9: spray on plants, cut aerial part, dead pest rate of third-instar Plutella xylostella larvae; conditions: 120 h, spray 20 ml/cup, 10 third-instar larvae, after 5 days at 25° C.; for pest or weed control at 12.5 ppm: test concentration 12.5 ppm; for pest or weed control at 50 ppm: test concentration 50 ppm; for pest or weed control at 200 ppm: test concentration 200 ppm
Experimental: In a mixed solution (0.1 mL) of xylene and N,N-dimethylformamide (mixture volume ratio; xylene:N,N-dimethylformamide=1:1), 30 mg of the present compounds (3), (4), (20), (35), (62), (81), (100), (101) or (112) was dissolved, and further a mixed solution (0.1 mL) of xylene and SORPOL 3005X (manufactured by Toho Chemcials, Co., Ltd.) (mixture volume ratio; xylene:SORPOL 3005X=1:9) was added thereto. The solution was diluted with ion-exchanged water so that the active ingredient became to the predetermined concentration to prepare a pesticidal solution for test of the test compound.
[…] were planted in polyethylene cups, and grown until the third true leaf or the fourth true leaf was developed. The spray solution for test prepared above was sprayed at a rate of 20 ml/cup on the cabbages.
After the pesticidal solution for test was dried, the aerial part of the cabbage was cut, and put into a polyethylene cup having a volume of 100 ml together with 10 third-instar larvae of Plutella xylostella, and stored at 25° C. After 5 days, the number of dead pests was countered, and the dead pest rate was calculated by the following equation:
as §1
Test concentrations of the others were 200 ppm.

[5] = system: Spondoptela litura; test: Test Example 3: treated artificial diet (Insecta LF), dead pest rate of Spondoptela litura larvae; conditions: 2 mL on Insecta LF diet, 5 fourth-instar larvae, after 6 days; for pest or weed control at 500 ppm: 144 h
Source text: Ten parts of the present compound (1) to (5), (7) to (13), (18) to (33), (35) to (49), (52) to (56), (58) to (61), (71), (73) to (77), (79), (80), (82), (83), (93), (94), (95), (96), (97), (100) to (109), (111), (112), (115), (117), (119), (121), or (123) to (133), 35 parts of white carbon containing 50 parts of polyoxyethylene alkyl ether sulfate ammonium salt, and 55 parts of water were mixed, and finely ground by a wet grinding method to obtain a preparation. The obtained preparation was diluted with water so that the active ingredient concentration became to 500 ppm to prepare a pesticidal solution for test. On the bottom of a polyethylene cup having a diameter of 5.5 cm, a filter paper having a diameter of 5.5 cm was placed, on which Insecta LF (Nippon Agriculture Industries, Co., Ltd.) sliced in a thickness of 6 mm and further cut half was laid, and to which 2 mL of the above-described pesticidal solution for test was added. After air-dried, 5 fourth-instar larvae of Spondoptela litura were released in the cup, and the cup was capped. After 6 days, the number of dead pests was counted, and the dead pest rate was calculated by the following equation:
as §1

[6] = system: Plutella xylostella; test: Test Example 6: cabbage root immersion, Plutella xylostella, against comparative compound C; conditions: 100 ppm; root immersion 5 days; 10 second-instar larvae; after 5 days at 24° C.
Experimental: (§2) In 0.25 mL of a mixed solution of Tween-20 and acetone (mixture volume ratio: Tween-20:acetone=1:19), 2.5 mg of the present compound (93) or comparative compound C was dissolved. The solution was diluted with ion-exchanged water so that the active ingredient concentration became to the predetermined concentration (100 ppm) to prepare a pesticidal solution for test of the test compound. The root part of cabbages in the fourth leaf period was washed with tap water to remove soils, and then immersed in the pesticidal solution for test. After 5 days from immersion of the root part, the root part was removed, and the leaves and stems were put in a polyethylene cup (volume; 180 mL). In the cup 10 second-instar larvae of Plutella xylostella were released, and the cup was stored at 24° C. After 5 days, the number of dead pests was countered, and the dead pest rate was calculated by the following equation:
as §1

[7] = system: Plutella xylostella; test: Test Example 7: cabbage root immersion, Plutella xylostella, against comparative compound D; conditions: 25 ppm; root immersion 5 days; 10 second-instar larvae; after 5 days at 24° C.
Experimental: as §2, with “compound (94)” for “compound (93)”, “compound D” for “compound C”, “concentration (25” for “concentration (100”, “a ice cream” for “a polyethylene”
as §1

## CN(C(=O)NC(=O)c1c(F)cccc1F)c1ccc(SC(F)(F)F)cc1F [(1)]
[1]
  pest or weed control at 500 ppm: 100%
[2]
  pest or weed control at 25 ppm: 100%
[3]
  pest or weed control at 50 ppm: 100%

## CN(C(=O)NC(=O)c1c(F)cccc1F)c1ccc(SC(F)(F)C(F)F)cc1F [(2)]
[1]
  pest or weed control at 500 ppm: 100%
[2]
  pest or weed control at 25 ppm: 100%
[3]
  pest or weed control at 50 ppm: 100%

## CN(C(=O)NC(=O)c1c(F)cccc1Cl)c1ccc(SC(F)(F)F)cc1F [(3)]
[2]
  pest or weed control at 25 ppm: 100%
[4]
  pest or weed control at 12.5 ppm: 100%

## CCN(C(=O)NC(=O)c1c(F)cccc1F)c1ccc(SC(F)(F)F)cc1F [(4)]
[2]
  pest or weed control at 25 ppm: 100%
[3]
  pest or weed control at 50 ppm: 100%
[4]
  pest or weed control at 50 ppm: 100%

## CN(C(=O)NC(=O)c1c(F)cccc1F)c1ccc(S(=O)(=O)C(F)(F)F)cc1F [(20)]
[2]; test concentration of 5 ppm, read-out: dead pest rate
  pest or weed control at 5 ppm: 100%
[4]
  pest or weed control at 12.5 ppm: 100%

## Cc1cc(SC(F)F)ccc1N(C)C(=O)NC(=O)c1c(F)cccc1F [(35)]
[4]
  pest or weed control at 50 ppm: 100%

## CN(C(=O)N(CCOc1ccccc1)C(=O)c1c(F)cccc1F)c1ccc(SC(F)(F)F)cc1F [(62)]
[2]
  pest or weed control at 25 ppm: 100%
[3]
  pest or weed control at 50 ppm: 100%
[4]
  pest or weed control at 200 ppm: 100%

## CN(C(=O)N(CC1CCCO1)C(=O)c1c(F)cccc1F)c1ccc(SC(F)(F)F)cc1F (stereo not shown) [(63)]
[1]
  pest or weed control at 500 ppm: 100%

## CN(C(=O)N(Cc1ccco1)C(=O)c1c(F)cccc1F)c1ccc(SC(F)(F)F)cc1F [(64)]
[1]
  pest or weed control at 500 ppm: 100%

## CN(C(=O)N(CC[S+](C)[O-])C(=O)c1c(F)cccc1F)c1ccc(SC(F)(F)F)cc1F (stereo not shown) [(74)]
[1]
  control value: 100%

## COC(=O)CN(C(=O)c1c(F)cccc1F)C(=O)N(C)c1ccc(SC(F)(F)F)cc1F [(81)]
[3]
  pest or weed control at 50 ppm: 100%
[4]
  pest or weed control at 200 ppm: 100%

## CN(C(=O)NC(=O)c1c(F)cccc1F)c1ccc(C(=O)OC(C)(C)C)cc1 [(82)]
[1]
  control value: 100%
[5]; 500 ppm
  dead pest rate: 100%

## C=CCSc1ccc(N(C)C(=O)NC(=O)c2c(F)cccc2F)c(F)c1 [(83)]
[1]
  pest or weed control at 500 ppm: 100%
[5]
  pest or weed control at 500 ppm: 100%

## C#CCSc1ccc(N(C)C(=O)NC(=O)c2c(F)cccc2F)c(F)c1 [(89)]
[1]
  pest or weed control at 500 ppm: 100%

## CN(C(=O)NC(=O)c1c(F)cccc1F)c1cc(Cl)c(SC(F)(F)C(F)F)c(Cl)c1 [(93)]
[1]
  pest or weed control at 500 ppm: 100%
[5]
  pest or weed control at 500 ppm: 100%
[6]
  dead pest rate: 90%

## CN(C(=O)N(C(=O)OCc1ccccc1)C(=O)c1c(F)cccc1F)c1ccc(SC(F)(F)F)cc1F [(97)]
[1]
  pest or weed control at 500 ppm: 100%
[5]
  pest or weed control at 500 ppm: 100%
[3]
  pest or weed control at 50 ppm: 100%

## CN(C(=O)N(C(=O)c1c(F)cccc1F)S(=O)(=O)c1ccccc1)c1ccc(SC(F)(F)F)cc1F [(99)]
[1]
  pest or weed control at 500 ppm: 100%

## CN(C(=O)NC(=O)c1c(F)cccc1F)c1cc(F)c(SC(F)(F)F)cc1F [(100)]
[4]
  pest or weed control at 200 ppm: 100%

## CN(C(=O)c1c(F)cccc1F)C(=O)N(C)c1cc(F)c(SC(F)(F)F)cc1F [(101)]
[3]
  pest or weed control at 50 ppm: 100%
[4]
  pest or weed control at 200 ppm: 100%

## Cc1c(SC(F)F)ccc(N(C)C(=O)NC(=O)c2c(F)cccc2F)c1C [(111)]
[1]
  pest or weed control at 500 ppm: 100%
[5]
  pest or weed control at 500 ppm: 100%

## Cc1c(SC(F)F)ccc(N(C)C(=O)N(C)C(=O)c2c(F)cccc2F)c1C [(112)]
[5]
  pest or weed control at 500 ppm: 100%
[4]
  pest or weed control at 50 ppm: 100%

## CN(C(=O)N(C(=O)c1c(F)cccc1F)N(C)C)c1ccc(SC(F)(F)F)cc1F [(115)]
[1]
  pest or weed control at 500 ppm: 100%
[5]
  pest or weed control at 500 ppm: 100%

## CON(C(=O)c1c(F)cccc1F)C(=O)N(C)c1ccc(SC(F)(F)F)cc1F [(116)]
[1]
  pest or weed control at 500 ppm: 100%

## O=C(NC(=O)c1c(F)cccc1F)Nc1cc(Cl)c(SC(F)(F)C(F)F)c(Cl)c1 [comparative compound C, reference compound]
[6]
  dead pest rate: 20%

## O=C(NC(=O)c1c(F)cccc1F)Nc1ccc(SC(F)(F)C(F)F)cc1 [comparative compound D, reference compound]
[7]
  dead pest rate: 20%
